Consider one compound from paper PMC9930429, “Wogonin attenuates the pathogenicity of Streptococcus pneumoniae by double‐target inhibition of Pneumolysin and Sortase A” (Journal of Cellular and Molecular Medicine, 2023).

As a reminder, the IC50 is the midpoint of a concentration-inhibition curve.

The experiment has as its target Pneumolysin (PLY) (Streptococcus pneumoniae, UniProt Q04IN8). The experiment in a line: biochemical.

Chain of Pneumolysin (PLY) (Q04IN8 2-471 limits assumed): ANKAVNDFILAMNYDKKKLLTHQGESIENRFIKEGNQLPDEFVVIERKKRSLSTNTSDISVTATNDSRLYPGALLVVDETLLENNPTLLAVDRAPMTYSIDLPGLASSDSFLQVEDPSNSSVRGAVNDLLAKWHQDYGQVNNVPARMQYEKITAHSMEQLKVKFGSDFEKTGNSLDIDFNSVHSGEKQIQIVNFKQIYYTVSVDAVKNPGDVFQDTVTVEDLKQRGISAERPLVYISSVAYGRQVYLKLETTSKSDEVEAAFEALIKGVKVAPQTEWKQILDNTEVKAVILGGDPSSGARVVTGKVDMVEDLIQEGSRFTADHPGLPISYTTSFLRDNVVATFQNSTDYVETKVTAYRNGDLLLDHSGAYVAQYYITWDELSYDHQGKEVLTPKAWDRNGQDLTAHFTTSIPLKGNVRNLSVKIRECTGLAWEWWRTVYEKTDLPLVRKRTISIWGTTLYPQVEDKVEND

Compound `COc1c(O)cc(O)c2c(=O)cc(-c3ccccc3)oc12` [wogonin] gave an IC50 of 186 µM.
